Key:
Human CO-HbS = molecular target: T1, Human CO-HbS (Homo sapiens, UniProt P69905); test: Crystallography of CO-liganded HbS with compound; details: CO-HbS 0.8 mM, compound 1 mM
T1 construct: Purified HbS was prepared from blood using a combination of gel filtration and anion exchange chromatography; from tissue; host or cells: blood
Experimental: Purified HbS was prepared from blood using a combination of gel filtration and anion exchange chromatography. Following preparation, the purified HbS solution was concentrated to 1 mM in a volume of 1 mL using a Vivaspin 20 concentrator (GE healthcare) via centrifugation at room temperature in an Eppendorf 5810 R centrifuge. The concentrated HbS solution was then buffer exchanged into potassium phosphate buffer by mixing 1 mL of concentrated HbS solution with 20 mL of 1.8 M potassium phosphate buffer, pH 7.4 and re-concentrating back to 1 mL using a Vivaspin 20. This process was repeated twice and aliquots of the resulting HbS solution were flash frozen using liquid nitrogen and stored at −80° C. To prepare HbS-CO, purified HbS was first saturated with CO for five hours before it was buffer exchanged into 20 mM Hepes buffer, pH 7.4, and concentrated to 3 mM.
Human CO-HbS was crystallized using sitting drop vapor diffusion method. Freshly prepared CO-HbS at 0.8 mM and buffered with 20 mM HEPES pH 7.4 was mixed with compounds (specifically, Compound 1 and Compound 2) at a final concentration of 1 mM. […] The appearance of hemoglobin crystals was monitored visually and microscopically every 48-72 hours after beginning of the experiments. […]

hemoglobin = molecular target: T2, hemoglobin (Homo sapiens, UniProt P69905); test: Whole blood assay: oxygen equilibrium curves (Hemox Analyzer), change in p50; format: cell-based; details: whole blood 20% Hct (1 mM Hb), compound 1 mM, equimolar to hemoglobin, 1 h at 37° C.
T2 construct: from tissue; host or cells: whole blood (red blood cells)
T2 sequence (P69905 2-142 limits assumed): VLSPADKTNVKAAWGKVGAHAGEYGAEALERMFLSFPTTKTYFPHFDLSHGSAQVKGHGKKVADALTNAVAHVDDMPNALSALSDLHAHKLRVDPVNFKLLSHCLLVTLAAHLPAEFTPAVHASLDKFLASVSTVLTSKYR
T2 sequence (P68871 2-147 partner limits assumed): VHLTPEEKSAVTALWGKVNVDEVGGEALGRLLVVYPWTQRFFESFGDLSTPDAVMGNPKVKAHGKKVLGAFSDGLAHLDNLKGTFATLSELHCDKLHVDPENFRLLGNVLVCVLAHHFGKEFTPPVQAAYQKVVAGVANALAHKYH
Experimental: Oxygen equilibrium curves (OECs) were collected using a TCS Hemox Analyzer (TCS Scientific Company, New Hope, Pa., USA) to measure changes in the binding affinity of 02 to Hb. Whole blood was incubated for 1 h at 37° C. with the indicated compounds in an equimolar ratio of hemoglobin to compound and diluted into TES (2-[[1,3-dihydroxy-2-(hydroxymethyl)propan-2-yl]amino]ethanesulfonic acid)/saline buffer prior to measurements. For example, for whole blood at 20% hematocrit [Hct], which corresponds to 1 mM Hb, a compound concentration of 1 mM was used (for example, for compounds 1-53), and the incubated sample diluted 50- to 100-fold. The concentration for compound 54 was 1.7 mM and in equimolar ratio to hemoglobin. The diluted samples were then oxygenated with compressed air within the Hemox Analyzer, and the OECs were collected during deoxygenation as previously described (Guarnone et al., Haematologica, 1995, 80, 426-430). p50 (partial pressure of 02 at which Hb is 50% saturated with 02) values were obtained using a non-linear regression analysis. Percentage change in p50 [Δp50(%)] was calculated as follows: Δp50(%)=[(p50 of control)−p50 with compound)/p50 control]×100.

[1] = Pharmacokinetics in rats following 10 mg/kg oral administration; format: in vivo; details: Sprague-Dawley, rat, PO 10 mg/kg
Experimental: The pharmacokinetic (PK) profile of Compound 2 was characterized in Sprague-Dawley rats following oral administration of 10 mg/kg. Blood and plasma samples were serially collected from each animal up to 240 h post-dose and analyzed for their concentrations using LC/MS. The analytical range was 100 to 100,000 ng/ml for both plasma and blood samples. Blood and plasma concentrations of Compound 2 were analyzed by non-compartmental analysis using Phoenix WinNonlin software (version 6-4; Pharsight Inc., Cary, N.C., USA) to obtain pharmacokinetic parameters, including half-life (T½) and area under the curve (AUC). AUClast refers to the area under the curve calculated from t=0 to the last detectable time-point. Blood to plasma concentration ratio was calculated from a ratio of AUClast in blood divided by AUClast in plasma.
Blood pharmacokinetic parameters in rat were determined in individual animals and reported as mean.

Purified hemoglobin = Purified hemoglobin (Homo sapiens, UniProt P69905); test: Hemoglobin assay: oxygen equilibrium curves with purified hemoglobin, change in p50; format: biochemical; details: purified hemoglobin 25 μM, compound 30 μM, 1 h at 37° C.
Purified hemoglobin, sequence (P69905 2-142 limits assumed): as the sequence (P69905 2-142 limits assumed) above
Purified hemoglobin, sequence (P68871 2-147 partner limits assumed): as the sequence (P68871 2-147 partner limits assumed) above
Experimental: Hemoglobin assay: Oxygen equilibrium curves (OECs) were collected as described above. Purified hemoglobin (25 μM) was incubated for 1 h at 37° C. with the indicated compounds (30 μM for compounds 6, 7, 8, and 11; 25 μM for compounds 55 to 67 (Enantiomer 1 and Enantiomer 2)) in 5 ml of TES (2-[[1,3-dihydroxy-2-(hydroxymethyl)propan-2-yl]amino]ethanesulfonic acid)/saline buffer prior to measurements. The samples were then oxygenated with compressed air within the Hemox Analyzer and the OECs were collected during deoxygenation as previously described. p50 values were obtained using a non-linear regression analysis, and Δp50(%) was calculated as described above.

T1 sequence (P69905 2-142 limits assumed): as the sequence (P69905 2-142 limits assumed) above

SMILES	binding sites on hemoglobin (crystal structure) (Human CO-HbS)	Delta-p50 (%) (hemoglobin)	blood plasma ratio ([1]; blood and plasma, AUClast in blood divided by AUClast in plasma)	AUC(0-t) ([1]; whole blood, blood, 0.5% MC, mean of N=3)	half-life ([1]; whole blood, blood, 0.5% MC, mean of N=3, read-out: T½ (converted))	Delta-p50 (%) (Purified hemoglobin)
O=Cc1c(O)cccc1OC[C@@H]1CCCCN1C(=O)c1cccc(O)c1C=O [Compound 1, 2-[(2S)-2-[(2-formyl-3-hydroxyphenoxy)methyl]piperidine-1-carbonyl]-6-hydroxybenzaldehyde]	two distinct areas of hemoglobin	75.8%	–	–	–	–
O=Cc1ccccc1C(=O)N1CCCC[C@H]1COc1cccc(O)c1C=O [Compound 2, 2-{[(2S)-1-(2-formylbenzoyl)piperidin-2-yl]methoxy}-6-hydroxybenzaldehyde]	two distinct areas of hemoglobin	78.3%	937	239 µg·h/mL	7.79 days	–
O=Cc1cc(-c2ncccc2COc2cccc(O)c2C=O)co1 [Compound 11, 4-{3-[(2-formyl-3-hydroxyphenoxy)methyl]pyridin-2-yl}furan-2-carbaldehyde]	–	17.2%	–	–	–	14.12%

— US11014884B2 (Global Blood Therapeutics, Inc., priority 2018, dated 2021)
